# Earlier results in patent US20190328869A1, “IMMUNOTHERAPEUTIC PRODUCT AND MDSC MODULATOR COMBINATION THERAPY” (Transgene SA, priority 2016, published 2019).
# Experiments:
# [1] = tested on: circulating CD34+ MDSCs; settings: head and neck cancer patients; cited from earlier work
# [2] = tested on: HBV-specific CD4+ and CD8+ T cells in PBMCs; settings: PBMCs from chronically HBV infected patients; cited from earlier work
# [3] = tested on: circulating CD33+HLA-DR− MDSCs; settings: patients with metastatic renal cell carcinoma; cited from earlier work
smiles,measurement,setting,value
C=C1CC[C@H](O)C/C1=C/C=C1\CCC[C@]2(C)[C@@H]([C@H](C)CCCC(C)(C)O)CC[C@@H]12 [25-hydroxyvitamin D3],circulating CD34+ MDSCs,[1],reduced the circulating CD34^+ MDSCs
same,clinical outcome,[1],failed to improve clinical outcome
"CC1=C(/C=C/C(C)=C/C=C/C(C)=C/C(=O)O)C(C)(C)CCC1 [ATRA, All-trans retinoic acid]",proliferation and IFN-γ production by HBV-specific CD4+ and CD8+ T cells,[2],restore the proliferation and IFN-γ production
same,circulating CD33+HLA-DR− MDSCs,[3],decreased circulating CD33^+HLA-DR^− MDSCs
